Results from PMC8839375, “Alpha-Glucosidase Inhibition and Molecular Docking of Isolated Compounds from Traditional Thai Medicinal Plant, Neuropeltis racemosa Wall” (Molecules, 2022).
Where two headings read alike, the source gives them in different places. Marks after values point to notes of the source that are not given here.

Columns and labels:
alpha-glucosidase [1] = molecular target: T1, alpha-glucosidase (Saccharomyces cerevisiae, UniProt P53341); experiment: enzyme kinetic study (Lineweaver-Burk and secondary plots); assay type: biochemical; details: for inhibition type: Lineweaver-Burk plot; for Ki′: inhibition constant when inhibitor bound with enzyme-substrate complex, secondary plot
T1 sequence (P53341 whole entry): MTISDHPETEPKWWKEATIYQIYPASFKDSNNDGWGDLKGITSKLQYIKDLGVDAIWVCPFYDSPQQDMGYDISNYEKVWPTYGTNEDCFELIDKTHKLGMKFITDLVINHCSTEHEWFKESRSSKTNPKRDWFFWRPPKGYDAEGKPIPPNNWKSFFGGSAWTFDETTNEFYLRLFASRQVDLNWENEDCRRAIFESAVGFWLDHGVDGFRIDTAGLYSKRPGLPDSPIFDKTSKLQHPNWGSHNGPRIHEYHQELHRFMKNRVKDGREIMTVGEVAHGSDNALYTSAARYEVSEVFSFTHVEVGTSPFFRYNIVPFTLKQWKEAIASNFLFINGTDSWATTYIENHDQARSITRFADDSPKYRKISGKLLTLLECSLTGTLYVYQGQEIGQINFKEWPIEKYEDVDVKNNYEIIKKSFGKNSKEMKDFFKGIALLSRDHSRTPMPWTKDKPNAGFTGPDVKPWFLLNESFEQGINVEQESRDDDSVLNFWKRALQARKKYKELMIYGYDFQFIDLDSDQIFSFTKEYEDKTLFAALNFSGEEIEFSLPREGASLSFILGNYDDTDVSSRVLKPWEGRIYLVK
Procedure: The double reciprocal Lineweaver–Burk plot was used to determine the mode of inhibition, while the secondary plots conducted the inhibition constants. […] Briefly, the enzyme inhibition procedure was performed as mention above. The 6 concentrations of pNPG (5–0.1 mM), the fixed enzyme concentration (1 unit/mL), and the 3 concentrations of each effective sample were evaluated for the manner of inhibition.

alpha-glucosidase [2] = molecular target: T1, alpha-glucosidase; details: cited from earlier work; for IC50: ref 13
alpha-amylase = tested on: alpha-amylase; design: method as in PMID 31185767; details: ref 15; cited from earlier work

O=C(/C=C/c1ccc(O)cc1)NCCc1ccc(O)cc1 [Compound 5, N-trans-coumaroyltyramine]
inhibition type (alpha-glucosidase [1]): Uncompetitive
Ki′ (alpha-glucosidase [1]): 1.99 µM
Ki′ (alpha-glucosidase [1]; listed as N-trans-coumaroyltyramine (5)): 1.99 ^c µM
inhibition type (alpha-glucosidase [2]; ref 11, 13): uncompetitive
inhibition type (alpha-glucosidase [2]; ref 12): non-competitive
IC50 (alpha-glucosidase [2]): 580 nM

COc1cc2ccc(=O)oc2cc1O [Compound 1, scopoletin]
inhibition type (alpha-glucosidase [1]): mixed-type
inhibition type (alpha-glucosidase [1]; listed as Scopoletin (1)): Mixed
inhibition type (alpha-glucosidase [2]; ref 20): competitive
alpha-amylase inhibitory activity (alpha-amylase): potent inhibitory activity

C[C@H]1O[C@H](O[C@H]2[C@H](O)[C@@H](O)[C@@H](O[C@H]3[C@H](O)[C@@H](O)C(O)O[C@@H]3CO)O[C@@H]2CO)[C@H](O)[C@@H](O)[C@@H]1N[C@H]1C=C(CO)[C@@H](O)[C@H](O)[C@H]1O (stereo partly drawn) [Acarbose, acarbose, reference compound]
inhibition type (alpha-glucosidase [1]): Competitive

COc1cc(C(=O)O)cc(OC)c1O [Compound 2, syringic acid]
inhibition type (alpha-glucosidase [2]; ref 9): either in a competitive or an uncompetitive manner

COc1cc(/C=C/C(=O)NCCc2ccc(O)cc2)ccc1O [Compound 4, N-trans-feruloyltyramine]
inhibition type (alpha-glucosidase [1]): Uncompetitive
Ki′ (alpha-glucosidase [1]): 51.81 µM
Ki′ (alpha-glucosidase [1]; listed as N-trans-feruloyltyramine (4)): 51.81 ^c µM
inhibition type (alpha-glucosidase [2]; ref 11, 13): uncompetitive
inhibition type (alpha-glucosidase [2]; ref 12): non-competitive
IC50 (alpha-glucosidase [2]): 3580 nM
